# Experimental data taken from patent US20160002204A1 (Board of Regents, The University of Texas System, priority 2014, published 2016).
# How the values were obtained:
# [1] = target: T1, GLS1 (purified recombinant human GAC) (Homo sapiens, UniProt O94925); test: GLS1 enzymatic activity assay (dual-coupled, Amplex UltraRed/resorufin); type: biochemical
# T1 sequence (O94925 55-598 isoform O94925-3 limits assumed): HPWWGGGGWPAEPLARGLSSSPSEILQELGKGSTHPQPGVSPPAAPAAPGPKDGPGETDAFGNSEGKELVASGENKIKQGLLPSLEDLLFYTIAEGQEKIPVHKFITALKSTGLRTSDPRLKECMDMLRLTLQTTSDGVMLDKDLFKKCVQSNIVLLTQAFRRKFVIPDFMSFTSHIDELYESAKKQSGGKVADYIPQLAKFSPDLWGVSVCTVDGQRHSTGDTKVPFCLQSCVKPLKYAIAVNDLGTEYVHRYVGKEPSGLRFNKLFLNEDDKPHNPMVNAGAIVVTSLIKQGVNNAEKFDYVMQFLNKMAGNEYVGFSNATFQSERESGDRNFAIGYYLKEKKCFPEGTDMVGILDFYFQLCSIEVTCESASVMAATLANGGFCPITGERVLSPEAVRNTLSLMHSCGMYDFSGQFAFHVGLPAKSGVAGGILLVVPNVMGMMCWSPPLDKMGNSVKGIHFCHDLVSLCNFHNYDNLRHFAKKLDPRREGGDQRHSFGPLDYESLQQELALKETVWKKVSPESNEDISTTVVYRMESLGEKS
# How it was run: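 Recombinant human GAC (2 nM) preincubated with 50 mM potassium phosphate, then inhibitor (10 min each, RT); 1 mM glutamine, pH 7.4 Hepes buffer, 1% DMSO. Glutamate coupled via glutamate oxidase/HRP to resorufin (Ex 530/Em 590), kinetic or 20-min endpoint; IC50 by four-parameter logistic fit.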
# A549 cells = test: A549 proliferation (viability) assay, Cell Titer Fluor, 72 hours; type: cell-based; conditions: Homo sapiens
# How it was run: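 Fluorescence read-out (Cell Titer Fluor, 30 min at 37 °C after reagent) after 72 h compound exposure of A549 cells; EC50 by four-parameter logistic curve fit. Cells: 1000/well, RPMI 1640 + 10% dialyzed FBS, 0.5% DMSO final.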
IC50 [1],EC50 (A549 cells),SMILES
< 100 nM,< 100 nM,"O=C(CC1CCCCC1)Nc1ccn(CCCCc2nnc(C(=O)NCc3cccc(OC(F)(F)F)c3)s2)c(=O)c1 [Example 440, 5-{4-[4-(2-cyclohexylacetamido)-2-oxo-1,2-dihydropyridin-1-yl]butyl}-N-{[3-(trifluoromethoxy)phenyl]methyl]-1,3,4-thiadiazole-2-carboxamide]"
< 100 nM,500 to 5000 nM,"Cc1ccc(CNC(=O)c2nnc(CCCCn3ccc(NC(=O)Cc4ccccc4)cc3=O)s2)cn1 [Example 441, N-[(6-methylpyridin-3-yl)methyl]-5-{4-[2-oxo-4-(2-phenylacetamido)-1,2-dihydropyridin-1-yl]butyl}-1,3,4-thiadiazole-2-carboxamide]"
< 100 nM,< 100 nM,"Cc1ccc(CNC(=O)c2nnc(CCCCn3ccc(NC(=O)Cc4cccc(OC(F)(F)F)c4)cc3=O)s2)cn1 [Example 442, N-[(6-methylpyridin-3-yl)methyl]-5-[4-(2-oxo-4-{2-[3-(trifluoromethoxy)phenyl]acetamido}-1,2-dihydropyridin-1-yl)butyl]-1,3,4-thiadiazole-2-carboxamide]"
< 100 nM,< 100 nM,"Cc1ccc(CNC(=O)c2nnc(CCCCn3ccc(NC(=O)CC4CCCCC4)cc3=O)s2)cn1 [Example 443, 5-{4-[4-(2-cyclohexylacetamido)-2-oxo-1,2-dihydropyridin-1-yl]butyl}-N-[(6-methylpyridin-3-yl)methyl]-1,3,4-thiadiazole-2-carboxamide]"
100 to 500 nM,500 to 5000 nM,"O=C(Cc1ccccc1)Nc1ccn(CCCCc2nnc(C(=O)NCc3ccccn3)s2)c(=O)c1 [Example 445, 5-{4-[2-oxo-4-(2-phenylacetamido)-1,2-dihydropyridin-1-yl]butyl}-N-(pyridin-2-ylmethyl)-1,3,4-thiadiazole-2-carboxamide]"
< 100 nM,100 to 500 nM,"O=C(Cc1cccc(OC(F)(F)F)c1)Nc1ccn(CCCCc2nnc(C(=O)NCc3ccccn3)s2)c(=O)c1 [Example 446, 5-[4-(2-oxo-4-{2-[3-(trifluoromethoxy)phenyl]acetamido}-1,2-dihydropyridin-1-yl)butyl]-N-(pyridin-2-ylmethyl)-1,3,4-thiadiazole-2-carboxamide]"
< 100 nM,< 100 nM,"O=C(CC1CCCCC1)Nc1ccn(CCCCc2nnc(C(=O)NCc3ccccn3)s2)c(=O)c1 [Example 447, 5-{4-[4-(2-cyclohexylacetamido)-2-oxo-1,2-dihydropyridin-1-yl]butyl}-N-(pyridin-2-ylmethyl)-1,3,4-thiadiazole-2-carboxamide]"
100 to 500 nM,500 to 5000 nM,"COCCNC(=O)c1nnc(CCCCn2ccc(NC(=O)Cc3cccc(OC(F)(F)F)c3)cc2=O)s1 [Example 450, N-(2-methoxyethyl)-5-[4-(2-oxo-4-{2-[3-(trifluoro-methoxy)phenyl]acetamido}-1,2-dihydropyridin-1-yl)butyl]-1,3,4-thiadiazole-2-carboxamide]"
< 100 nM,100 to 500 nM,"COCCNC(=O)c1nnc(CCCCn2ccc(NC(=O)CC3CCCCC3)cc2=O)s1 [Example 451, 5-{4-[4-(2-cyclohexylacetamido)-2-oxo-1,2-dihydropyridin-1-yl]butyl)-N-(2-methoxyethyl)-1,3,4-thiadiazole-2-carboxamide]"
100 to 500 nM,500 to 5000 nM,"O=C(Cc1ccccc1)Nc1ccn(CCCCc2nnc(C(=O)NCc3ncccc3F)s2)c(=O)c1 [Example 453, N-[(3-fluoropyridin-2-yl)methyl]-5-{4-[2-oxo-4-(2-phenylacetamido)-1,2-dihydropyridin-1-yl]butyl}-1,3,4-thiadiazole-2-carboxamide]"
< 100 nM,100 to 500 nM,"O=C(Cc1cccc(OC(F)(F)F)c1)Nc1ccn(CCCCc2nnc(C(=O)NCc3ncccc3F)s2)c(=O)c1 [Example 454, N-[(3-fluoropyridin-2-yl)methyl]-5-[4-(2-oxo-4-{2-[3-(trifluoromethoxy)phenyl]acetamido}-1,2-dihydropyridin-1-yl)butyl]-1,3,4-thiadiazole-2-carboxamide]"
< 100 nM,< 100 nM,"O=C(CC1CCCCC1)Nc1ccn(CCCCc2nnc(C(=O)NCc3ncccc3F)s2)c(=O)c1 [Example 455, 5-{4-[4-(2-cyclohexylacetamido)-2-oxo-1,2-dihydropyridin-1-yl]butyl}-N-[(3-fluoropyridin-2-yl)methyl]-1,3,4-thiadiazole-2-carboxamide]"
< 100 nM,100 to 500 nM,"O=C(Cc1ccccn1)Nc1ccn(CCCCc2nnc(C(=O)NCc3cccc(OC(F)(F)F)c3)s2)c(=O)c1 [Example 456, 5-(4-{2-oxo-4-[2-(pyridin-2-yl)acetamido]-1,2-dihydropyridin-1-yl}butyl)-N-{[3-(trifluoromethoxy)phenyl]methyl}-1,3,4-thiadiazole-2-carboxamide]"
< 100 nM,< 100 nM,"O=C(Cc1ccccc1)Nc1ccn(CCCCc2nnc(C(=O)NCc3cc(OC(F)(F)F)ccc3F)s2)c(=O)c1 [Example 458, N-{[2-fluoro-5-(trifluoromethoxy)phenyl]methyl}-5-{4-[2-oxo-4-(2-phenylacetamido)-1,2-dihydropyridin-1-yl]butyl}-1,3,4-thiadiazole-2-carboxamide]"
< 100 nM,< 100 nM,"O=C(Cc1cccc(OC(F)(F)F)c1)Nc1ccn(CCCCc2nnc(C(=O)NCc3cc(OC(F)(F)F)ccc3F)s2)c(=O)c1 [Example 459, N-{[2-fluoro-5-(trifluoromethoxy)phenyl]methyl}-5-[4-(2-oxo-4-{2-[3-(trifluoromethoxy)phenyl]acetamido}-1,2-dihydropyridin-1-yl)butyl]-1,3,4-thiadiazole-2-carboxamide]"
< 100 nM,< 100 nM,"O=C(CC1CCCCC1)Nc1ccn(CCCCc2nnc(C(=O)NCc3cc(OC(F)(F)F)ccc3F)s2)c(=O)c1 [Example 460, 5-{4-[4-(2-cyclohexylacetamido)-2-oxo-1,2-dihydropyridin-1-yl]butyl}-N-{[2-fluoro-5-(trifluoromethoxy)phenyl]methyl}-1,3,4-thiadiazole-2-carboxamide]"
< 100 nM,500 to 5000 nM,"O=C(Cc1ccccn1)Nc1ccn(CCCCc2nnc(C(=O)NCc3cc(OC(F)(F)F)ccc3F)s2)c(=O)c1 [Example 461, N-{[2-fluoro-5-(trifluoromethoxy)phenyl]methyl}-5-(4-{2-oxo-4-[2-(pyridin-2-yl)acetamido]-1,2-dihydropyridin-1-yl}butyl)-1,3,4-thiadiazole-2-carboxamide]"
100 to 500 nM,100 to 500 nM,"Cc1ccc(CNC(=O)c2nnc(CCCCn3ccc(NC(=O)CN4CCCCC4)c(F)c3=O)s2)cn1 [Example 462, 5-(4-{3-fluoro-2-oxo-4-[2-(piperidin-1-yl)acetamido]-1,2-dihydropyridin-1-yl}butyl)-N-[(6-methylpyridin-3-yl)methyl]-1,3,4-thiadiazole-2-carboxamide]"
100 to 500 nM,100 to 500 nM,"Cc1ccc(CNC(=O)c2nnc(CCCCn3ccc(NC(=O)C(=O)N4CCCCC4)c(F)c3=O)s2)cn1 [Example 463, 5-(4-{3-fluoro-2-oxo-4-[2-oxo-2-(piperidin-1-yl)acetamido]-1,2-dihydropyridin-1-yl}butyl)-N-[(6-methylpyridin-3-yl)methyl]-1,3,4-thiadiazole-2-carboxamide]"
